Data reported in patent US20050059574A1 (priority 2000, published 2005).
Where “and” joins values, the source holds several entries; their conditions need not be identical. Identical values can stand only once. One block for each compound: values may come before it.

Key:
[1] = background statement; bound to thyroxine-binding globulin in human serum; cited from earlier work
[2] = system: purified cultured cardiac myocytes; conditions: 125I-T3 at 10^−8 M
[3] = Pharmacokinetic studies in a rodent model: serum T3 after single intramuscular bolus; assay type: in vivo, rat; conditions: rats; for Serum T3 level as % of the peak value: within 2 hours of injection
[4] = Serum total T3 levels after T3a bolus during cardiac resuscitation in dogs; assay type: in vivo, dog
Description: Subsequent blood samples were obtained from the arterial circulation at 0.5 to 1.5 minutes after the bolus injection, and also at 15 to 20 minutes and 30 minutes, respectively.
Before sending the blood sample for immunoassay, in each experiment all the blood samples were collected in red-topped serum separator tubes. The tubes were centrifuged at 2500 rpm on a tabletop centrifuge for 10 minutes at 4° C. to separate the cells from the serum. The blood samples were then stored and frozen at −4° C.

[5] = system: dogs with electrically induced ventricular fibrillation; test: Phase Ib: cardiac resuscitation of dogs after induced ventricular fibrillation (Thumper CPR, external defibrillation, T3a bolus into right ventricle); assay type: in vivo, dog; conditions: Post T3a (15 m), individual dogs
Description: All animals were fasted overnight and anesthesia was induced by intravenous sodium thiopental (Pentothal sodium 15-25 mg/kg). After intubation and ventilation by a ventilator (North American Dräger, Anesthesia and Ventilator, Model AVE-K, Serial No. 5033), anesthesia was maintained by 2% isoflurane (Isoflurane Vaporizer, R-Vapor, R-24045), and oxygen. ECG (Hewlett Packard Model No. 78346A). Oxygen saturation was monitored continuously. Preoperatively, all animals received Acepromazine maleate, 0.25-0.5 mg, I.M, lactated Ringer's solution was given intravenously (250 ml-350 ml/hr) during the procedure.
A 8.5Fr. catheter sheath was introduced into the right femoral artery and the side arm was connected to a fluid transducer for the continuous measurement of systemic arterial blood pressure. A 7Fr. Bipolar Multipurpose A-2 Electrode Catheter, 1 Lumelec™ (Lot no. 30395908, Catalog no. 528-724, Cordis, USA) tipped with pressure transducer with 2 side holes, 2 electrodes with an open end, 125 cm long, and 0.038 inch diameter, was advanced through the catheter sheath, and placed into the left ventricle. Continuous measurement of the systemic left ventricular pressure was obtained. Analog signals from the pressure transducers were obtained using an amplifier (PM-1000, CWE Inc., Ardmore, Pa.).
A 8.5Fr. catheter sheath was introduced into the right femoral vein and a 7Fr. MP A2, Multipurpose high flow catheter (catalog no. 527-742, Cordis, USA) with open end and side holes was placed into the right ventricle for T3a injections. Another 7Fr. catheter sheath was introduced into the left femoral artery and a 6Fr. pigtail catheter (catalog no. 527-654S, 110 cm, 155° angled) was placed into the descending aorta for the collection of aortic blood samples after T3a injections into the right ventricle. ECG (Hewlett-Packard, Model No. 78346A, Ser. No. 2320A00522) was continuously monitored. A temperature-monitoring device (T. SIN, Japan, designed for YSI series 400 thermistors), connected to the data acquisition system, was introduced into the external ears of all the animals to continuously measure body temperature.
The two distal ends of the 7Fr. Bipolar Multipurpose A-2 Electrode Catheter were connected to a Transformer. The electrical system can deliver 15V, 20 mA AC current through the pacing catheter system. The anesthesia was stopped. A venous blood sample from the right ventricle was obtained. Lid reflexes returned in several minutes.
The lid reflexes were checked by the finger method system and when frequent blinking of the lids was obtained, procedures for the ventricular fibrillation were carried out. […]
The force of compression necessary to achieve this baseline condition was recorded and not altered during subsequent provision of chest compressions. […]

[6] = system: dogs with electrically induced ventricular fibrillation; test: Phase Ia (methodology section): fibrillation/defibrillation in dogs with T3a or epinephrine; assay type: in vivo, dog; conditions: individual dogs
Source text: Phase 1a was dedicated towards developing the basic methodology in the initial experiments, manual chest compression (CPR) and an internal defibrillator were employed. Induction of ventricular fibrillation and defibrillation were problematic with the internal electrodes because of the size mismatch: electrodes designed for humans being used in a smaller sized animal. In later experiments, the internal system was replaced with an LV pacing catheter connected to AC current via a step-down transformer (to induce ventricular fibrillation), and a new external, “hands-off” defibrillator. The manual chest compression was replaced with a THUMPER CPR system.
In the experiments, T3a was given 30 seconds before defibrillation. Preferably, T3a injection was given 60 to 90 seconds after defibrillation.
The results section was divided into Phases Ia (n=9) and Ib (n=8). The hemodynamic data were not consistently available in Phase Ia as there was no spontaneous or induced recovery except for 3 animals. Use of T3a was limited to only 3 dogs in this phase although epinephrine was used in 5 of them. This phase was dedicated towards the development of the Phase Ib parameters.
HVS-02 Fibrillator and Defibrillator were used in the tests. The operating instructions for the HVS-02 Fibrillator and Defibrillator can be found in the Manual for HVS-02 Fibrillator and Defibrillator.
Phase Ia was dedicated towards developing the basic methodology. […] In 3 animals, the hemodynamic data after defibrillation were less than the pre-fibrillatory data. […] In the experiments, internal defibrillator was used for the preliminary experiments and T3a was given just before defibrillation (30 seconds). Moreover, THUMPER CPR was used in the last 2 dogs instead of manual CPR. Thumper CPR worked well and it was used for the subsequent T3a experiments of Phase Ib. Manual chest compression was maintained for another 5 minutes after defibrillation and T3a or epinephrine injections. Bolus epinephrine injection (100 μg/kg) was used in 5 random dogs.

Compound: NC(Cc1cc(I)c(Oc2cc(I)c(O)c(I)c2)c(I)c1)C(=O)O (stereo not shown) [T4]
Half-life [1]: 140 to 170 h

Half-life of T3 in serum, 5 μg/kg versus 100 μg/kg ([3]; i.m.): identical
Serum T3 level as % of peak values ([3]; i.m., 24 hours after injection, within normal physiological range): 10%
Serum T3 level as % of the peak value ([3]; i.m., high dose 100 μg/Kg): 64%
Serum T3 level as % of the peak value ([3]; i.m., low dose 5 μg/Kg): 90%
Time to peak serum T3 values ([3]; intramuscular, 5 μg/Kg and 100 μg/Kg): ≤ 30 min
Time serum T3 levels were maintained at high level ([4]; 4 μg T3/kg): 30 min
Serum T3 levels ([4]; 4 μg T3/kg, within 2 minutes of drug administration): greater than 9000 ng/dl
Increase of serum T3 level over baseline ([4]; bolus 4 μg/kg, one minute after injection, baseline 87±6 ng/dl): 100 fold
Compound: N[C@@H](Cc1cc(I)c(Oc2ccc(O)c(I)c2)c(I)c1)C(=O)O [T3, 3,5,3′-triiodothyronine]
Time to detection of T3 in the nucleus of the cell [2]: ≤ 5 min

Compound: CNC[C@H](O)c1ccc(O)c(O)c1 [Epi, epinephrine]
D. AoP [5]: 64.0 mmHg
Recover [5]: Yes
S. AoP [5]: 82.7 mmHg
S. LVP [5]: 103.0 mmHg
Recover ([6]; After D-Fib (+ drug)): No (2×) and Yes
D. AoP ([6]; Post (15 m)): 76.1 mmHg
Recover ([6]; Post (15 m)): No (2×) and Yes
S. AoP ([6]; Post (15 m)): 89.3 mmHg
S. LVP ([6]; Post (15 m)): 110.2 mmHg
